Where two headings read alike, the source gives them in different places.
Experiments:
[1] = test system: PI3K induced Akt/PKB phosphorylation in Raw 264-7 macrophages; test: Cell based ELISA of Akt/PKB phosphorylation in macrophages after Complement 5a stimulation; conditions: Mus musculus, RAW264.7, 5 min, 50 nM Complement 5a for 5 minutes, read-out: Cell Assay (P-Akt, Elisa) IC50
Method: b) Cell Based ELISA to Monitor PI3K Inhibition:
The efficacy of compounds of the invention in inhibiting the PI3K induced Akt/PKB phosphorylation may be tested in the following cell based assay.
Measurement of Akt/PKB phosphorylation in macrophages after stimulation with Complement 5a: Raw 264: Raw 264-7 macrophages (cultured in DMEM-F12 medium containing 10% Fetal Calf serum and antibiotics) are plated at 20,000 cells/well in a 96 MTP 24 h before cell stimulation. Prior to the stimulation with 50 nM of Complement 5a during 5 minutes, Cells are serum starved for 2 h, and pretreated with inhibitors for 20 minutes. After stimulation cells are fixed in 4% formaldehyde for 20 minutes and washed 3 times in PBS containing 1% Triton X-100 (PBS/Triton). Endogenous peroxidase is blocked by a 20 minutes incubation in 0.6% H2O2 and 0.1% Sodium Azide in PBS/Triton and washed 3 times in PBS/Triton. Cells are then blocked by 60 minutes incubation with 10% fetal calf serum in PBS/Triton. Next, phosphorylated Akt/PKB is detected by an overnight incubation at 4° C. with primary antibody (anti phospho Serine 473 Akt IHC, Cell Signaling) diluted 800-fold in PBS/Triton, containing 5% bovine serum albumin (BSA). After 3 washes in PBS/Triton, cells are incubated for 60 minutes with a peroxidase conjugated goat-anti-rabbit secondary antibody (1/400 dilution in PBS/Triton, containing 5% BSA), washed 3 times in PBS/Triton, and 2 times in PBS and further incubated in 100 μl of luminescent substrate reagent solution (Pierce) for 2 minutes, followed by the reading (1 s/well).
The values indicated in Table III below reflect the percentage of inhibition of AKT phoshorylation as compared to basal level. Said values show a clear effect of the thiazole compounds on the activation of AKT phosphorylation in macrophages.

Neutrophil recruitment = test: Thioglycollate-induced peritoneal cavity cell recruitment model, neutrophils; format: in vivo, C3H mice; conditions: 10 mg/kg orally, lavage 4 h after thioglycollate
Method: (§1) Thioglycollate-Induced Pertioneal Cavity Cell Recruitment Model
(§2) The in vivo efficacy of compounds of the invention in inhibiting the migration of leukocytes upon intraperitoneal challenge of thioglycollate may be tested with the following assay.
(§3) 8-10 weeks old female C3H mice are fasted during 18 hours. 15 minutes prior the intraperitoneal injection of thioglycollate (1.5%, 40 ml/kg), the mice are treated orally with Thiazoles of Formula (I). Control mice receive CMC/Tween as vehicle (10 ml/kg). The mice are then sacrificed by CO2 inhalation and the peritoneal cavity is washed two times with 5 ml of ice-cold PBS/1 mM EDTA. The lavages are done 4 hours or 48 hours after thioglycollate challenge to evaluate neutrophils or macrophages recruitment, respectively. The white blood cells (neutrophils, lymphocytes or macrophages) are counted using a Beckman Coulter® A ^cT 5diff™. Dexamethasone is used as reference drug.

Macrophage recruitment = test: Thioglycollate-induced peritoneal cavity cell recruitment model, macrophages; format: in vivo, C3H mice; conditions: 10 mg/kg orally, lavage 48 h after thioglycollate
Method: as §1, §2, §3

[2] = target: Human recombinant GST-PI3Kγ (Homo sapiens, UniProt P48736); test: High throughput PI3K lipid kinase assay (SPA, neomycin-coated beads); format: biochemical
Chain of Human recombinant GST-PI3Kγ (P48736 whole entry): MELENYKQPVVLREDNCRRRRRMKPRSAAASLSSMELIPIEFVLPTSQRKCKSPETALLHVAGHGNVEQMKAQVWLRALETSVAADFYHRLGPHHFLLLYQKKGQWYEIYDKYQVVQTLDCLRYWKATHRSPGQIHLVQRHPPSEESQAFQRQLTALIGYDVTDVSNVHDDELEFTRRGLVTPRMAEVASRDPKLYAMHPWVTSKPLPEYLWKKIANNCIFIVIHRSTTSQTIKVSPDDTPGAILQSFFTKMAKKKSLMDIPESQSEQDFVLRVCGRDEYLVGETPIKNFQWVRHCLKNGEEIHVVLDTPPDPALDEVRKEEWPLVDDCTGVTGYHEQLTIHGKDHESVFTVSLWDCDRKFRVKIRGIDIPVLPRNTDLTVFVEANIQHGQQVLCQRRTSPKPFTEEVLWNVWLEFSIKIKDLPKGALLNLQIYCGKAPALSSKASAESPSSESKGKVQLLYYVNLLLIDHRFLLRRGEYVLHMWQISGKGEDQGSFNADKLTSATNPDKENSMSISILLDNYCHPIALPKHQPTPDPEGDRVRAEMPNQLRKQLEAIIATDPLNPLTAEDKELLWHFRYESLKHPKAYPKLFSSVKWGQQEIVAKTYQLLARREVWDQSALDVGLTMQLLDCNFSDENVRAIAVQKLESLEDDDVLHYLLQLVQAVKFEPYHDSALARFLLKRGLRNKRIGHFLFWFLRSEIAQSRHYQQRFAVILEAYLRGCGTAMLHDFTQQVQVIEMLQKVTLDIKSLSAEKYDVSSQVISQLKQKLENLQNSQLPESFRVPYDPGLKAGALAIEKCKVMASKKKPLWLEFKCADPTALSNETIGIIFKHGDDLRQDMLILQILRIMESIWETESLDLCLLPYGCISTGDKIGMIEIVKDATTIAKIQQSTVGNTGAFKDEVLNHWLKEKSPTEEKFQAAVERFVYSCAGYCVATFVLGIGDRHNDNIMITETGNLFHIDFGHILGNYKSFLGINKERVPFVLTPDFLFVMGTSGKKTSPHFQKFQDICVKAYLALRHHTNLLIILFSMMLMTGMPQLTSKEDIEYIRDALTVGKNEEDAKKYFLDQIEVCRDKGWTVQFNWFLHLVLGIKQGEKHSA
Excerpt: a) High Throughput PI3K Lipid Kinase Assay (Binding Assay):
The efficacy of compounds of the invention in inhibiting the PI3K induced-lipid phosphorylation may be tested in the following binding assay.
The assay combines the scintillation proximity assay technology (SPA, Amersham) with the capacity of neomycin (a polycationic antibiotic) to bind phospholipids with high affinity and specificity. The Scintillation Proximity Assay is based on the properties of weakly emitting isotopes (such as ^3H, ^125I, ^33P). Coating SPA beads with neomycin allows the detection of phosphorylated lipid substrates after incubation with recombinant PI3K and radioactive ATP in the same well, by capturing the radioactive phospholipids to the SPA beads through their specific binding to neomycin.
To a 384 wells MTP containing 5 μl of the test compound of Formula (I) (solubilized in 6% DMSO; to yield a concentration of 100, 30, 10, 3, 1, 0.3, 0.1, 0.03, 0.01, 01 μM of the test compound), the following assay components are added. 1) 5 μl (58 ng) of Human recombinant GST-PI3Kγ (in Hepes 40 mM, pH 7.4, DTT 1 mM and ethylenglycol 5%) 2) 10 μl of lipid micelles and 3) 10 μl of Kinase buffer ([^33P]γ-ATP 45 μM/60 nCi, MgCl2 30 mM, DTT 1 mM, β-Glycerophosphate 1 mM, Na3VO4 100 μM, Na Cholate 0.3%, in Hepes 40 mM, pH 7.4). After incubation at room temperature for 180 minutes, with gentle agitation, the reaction is stopped by addition of 60 μl of a solution containing 100 μg of neomycin-coated PVT SPA beads in PBS containing ATP 10 mM and EDTA 5 mM. The assay is further incubated at room temperature for 60 minutes with gentle agitation to allow binding of phospholipids to neomycin-SPA beads. After precipitation of the neomycin-coated PVT SPA beads for 5 minutes at 1500×g, radioactive PtdIns(3)P is quantified by scintillation counting in a Wallac MicroBeta™ plate counter.
The values indicated in Table II below refer to the IC50 (μM) with respect to PI3Kγ, i.e. the amount necessary to achieve 50% inhibition of said target. Said values show a considerable inhibitory potency of thiazole compounds with regard to PI3Kγ.

[3] = test system: Collagen-induced arthritis; test: Collagen-induced arthritis, CIA (mouse); format: in vivo, DBA/1 mice; conditions: twice a day, 7 days

- IC50 [1]: 0.05 µM
- IC50 ([1]; re-testing): 0.32 µM
- IC50 [2]: 0.014 µM
SMILES: CC(=O)Nc1nc(C)c(-c2csc(S(=O)(=O)N3CCC(O)CC3)c2)s1 [Example 39, N-(5-{5-[(4-hydroxypiperidin-1-yl)sulfonyl]-3-thienyl}-4-methyl-1,3-thiazol-2-yl)acetamide]
- % inhibition of Neutrophil recruitment at 10 mg/kg after 4 h (Neutrophil recruitment): 48%
- % inhibition of Macrophage recruitment at 10 mg/kg after 48 h (Macrophage recruitment): 43%
- Reduction of total clinical score [%] ([3]; 10 mg/kg orally): 30%
- Reduction of total clinical score [%] ([3]; 30 mg/kg orally): 50%
- Reduction of total clinical score [%] ([3]; 60 mg/kg orally): 75%

From US8399497B2, “Thiazole derivatives and use thereof” (Merck Serono SA, priority 2005, dated 2013)
